For one test, the system named is Influenza B virus. In words: In vitro inhibitory activity against influenza B neuraminidase using enzymatic assay. It is filed as functional.
The target in test [1] is Neuraminidase (Influenza A virus (A/Puerto Rico/8/1934(H1N1)), UniProt P03468). In words: In vitro inhibitory activity against influenza A neuraminidase using enzymatic assay.
Neuraminidase (Influenza A virus (A/Puerto Rico/8/1934(H1N1)), UniProt P03468), sequence (P03468 whole entry): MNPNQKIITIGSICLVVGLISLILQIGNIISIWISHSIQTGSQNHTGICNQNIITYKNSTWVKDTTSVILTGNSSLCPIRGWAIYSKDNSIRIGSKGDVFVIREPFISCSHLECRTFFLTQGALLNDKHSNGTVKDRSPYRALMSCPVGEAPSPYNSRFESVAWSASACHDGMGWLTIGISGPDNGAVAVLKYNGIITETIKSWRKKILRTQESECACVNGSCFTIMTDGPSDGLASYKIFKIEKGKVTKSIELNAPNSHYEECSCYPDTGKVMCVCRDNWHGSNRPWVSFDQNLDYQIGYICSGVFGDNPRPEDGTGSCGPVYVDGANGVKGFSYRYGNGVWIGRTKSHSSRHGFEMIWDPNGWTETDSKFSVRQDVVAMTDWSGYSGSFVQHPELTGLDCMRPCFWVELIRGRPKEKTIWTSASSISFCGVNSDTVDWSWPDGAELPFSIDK

For the molecule `CCC(CC)O[C@@H]1C=C(C(=O)O)C[C@H](N)[C@H]1NC(C)=O` [OSELTAMIVIR CARBOXYLATE], in the test on Influenza B virus, the IC50 (as a rule, the point on the concentration scale where inhibition reaches its midpoint) is 4 nM. On to `CC[C@@H](CCO)O[C@@H]1C=C(C(=O)O)C[C@H](N)[C@H]1NC(C)=O`, for which the figures for the IC50 (in test [1]; with Influenza B virus) were 30 nM and 85 nM, respectively. In test [1], `CC[C@H](CC(=O)O)O[C@@H]1C=C(C(=O)O)C[C@H](N)[C@H]1NC(C)=O` displayed an IC50 of 1150 nM. That is a single-digit micromolar value. Molecule `CC[C@@H](CC(=O)O)O[C@@H]1C=C(C(=O)O)C[C@H](N)[C@H]1NC(C)=O` gave an IC50 in test [1] of 450 nM. Compared with the last molecule, the IC50 is about 2.6-fold lower.

`CC[C@H](CCO)O[C@@H]1C=C(C(=O)O)C[C@H](N)[C@H]1NC(C)=O`: the IC50 in test [1] is 40 nM; in the test on Influenza B virus it was 400 nM.

The record behind these values is ChEMBL document CHEMBL1132511, “Stereospecific synthesis of a GS 4104 metabolite: determination of absolute stereochemistry and influenza neuraminidase inhibitory activity” (Bioorg Med Chem Lett, 1999).
